In patent US8962603B2, “Method for post coital contraception in overweight or obese female subjects using ulipristal acetate” (Laboratoire HRA-Pharma, priority 2010, dated 2015):

Key:
[1] = system: women requesting emergency contraception after unprotected intercourse; test: Meta-analysis of Phase II and Phase III emergency contraception studies: pregnancy rate by WHO BMI class; format: in vivo; settings: for Odds Ratio [95% CI]: ulipristal acetate vs levonorgestrel
Experimental: The effect of BMI in pooled phase III studies was assessed by comparing pregnancy rates among sub-groups of the study populations according to WHO weight classes. Pregnancy rates increased starting from BMI>25, and for women with a BMI>30, the 95% CI of the observed pregnancy rate overlapped with the expected pregnancy rate. […] This Phase II, prospective, multicenter, randomized, double-blind study was performed to compare the efficacy of a single 50 mg dose of ulipristal acetate (unmicronized in gelatine capsule) with two 0.75 mg doses of levonorgestrel used as an emergency postcoital contraceptive within 72 hours of unprotected intercourse. The study was carried out in seven sites in seven different states in the United States. Women (aged ≧18 years old) not using hormonal contraception and who requested emergency contraception within 72 hours (3 days) after unprotected coitus defined by lack of contraceptive use, condom breakage or other barrier contraceptive method failure were included. Subjects were required to have a history of regular menstrual cycles (mean length of 24-42 days with intra-individual variation of ±5 days). At least one normal menstrual cycle (two menses) was required after delivery, abortion, or discontinuation of hormonal contraception. Subjects were excluded from the study if they were pregnant at screening or enrollment (assessed by a high-sensitivity urine pregnancy test), pregnant or breastfeeding within the 2 months before screening, using an intra-uterine device (IUD) or female or male sterilization as a contraceptive method, uncertain about the date of the last menstrual period (±3 days), had been nauseated or vomited in the 2 weeks before screening, had used oral glucocorticoid replacement therapy in the year before the screening, or were currently enrolled in any other investigational trial. Each woman returned for a follow-up visit 5 to 7 days after the expected onset of their next menstrual period and a high-sensitivity urine pregnancy test was performed. The primary objective was to compare the efficacy, as determined by pregnancy prevention, of 50 mg ulipristal acetate and levonorgestrel used as an emergency postcoital contraceptive within 72 hours of unprotected intercourse. […] This was a prospective, single-blind (subject and sponsor blind, investigator not blind), randomized, multicenter, 2-arm parallel comparative study designed to evaluate the efficacy, safety and tolerability of a single dose of ulipristal acetate (30 mg) compared to levonorgestrel (1.5 mg) administered for EC within 120 hours after unprotected intercourse. It was performed in 10 centers in Europe and 25 centers in the US. Women (aged ≧16 years), with regular menstrual cycles (between 24 and 35 days and intra-individual variations less than or equal to 5 days), who presented for EC within 120 hours after unprotected intercourse at a participating study site and who met the inclusion/exclusion criteria were enrolled into the study after they signed informed consent form. Subjects were excluded from the study in case of ongoing pregnancy or breast-feeding or current use of hormonal contraception or IUD. The study medication (ulipristal acetate 30 mg or levonorgestrel 1.5 mg) was administered according to a random allocation procedure generated electronically. Treatment was administered orally immediately after all eligibility criteria (including negative urine pregnancy test) had been verified. […] The primary objective of the study was to provide evidence that the pregnancy rate observed after taking ulipristal acetate (30 mg) within 72 hours of unprotected intercourse is lower than the expected pregnancy rate in the absence of EC. […]

[2] = in vivo; cited from earlier work
[3] = used within 72 hours of UPI; cited from earlier work
[4] = BMI class (WHO) Normal weight (18.5 to 24.99), N=2087
[5] = BMI class (WHO) Obese grade I (30 to 34.99), N=285
[6] = BMI class (WHO) Obese grade II (35 to 39.99), N=107
[7] = BMI class (WHO) Obese grade III (≧40), N=77
[8] = BMI class (WHO) Overweight (25 to 29.99), N=744
[9] = BMI class (WHO) Underweight (<18.5), N=145
[10] = grouped BMI class Obese II and more, N=184
[11] = grouped BMI class Overweight & Obese I, N=1029
[12] = grouped BMI class Underweight & Normal, N=2232

`C#C[C@]1(O)CC[C@H]2[C@@H]3CCC4=CC(=O)CC[C@@H]4[C@H]3CC[C@@]21CC` [Levonorgestrel, levonorgestrel] gave a Pregnancy rate [1, 4] of 1.33%, a Pregnancy rate [1, 5] of 6.71% and a Pregnancy rate [1, 6] of 3.85%. It also gave a Pregnancy rate [1, 7] of 4.88%, a Pregnancy rate [1, 8] of 2.45% and a Pregnancy rate [1, 9] of 1.43%. For the same compound, the “Pregnancy rate” value [1, 10] was 4.30%, the “Pregnancy rate” value [1, 11] was 3.68% and the “Pregnancy rate” value [1, 12] was 1.34%.

For `CC(=O)O[C@]1(C(C)=O)CC[C@H]2[C@@H]3CCC4=CC(=O)CCC4=C3[C@@H](c3ccc(N(C)C)cc3)C[C@@]21C` [Ulipristal acetate, 17α-acetoxy-11β-[4-N,N-dimethylamino-phenyl)-19-norpregna-4,9-diene-3,20-dione], the effect on ovulation [2] is listed as “inhibits or delays ovulation in a dose-dependent fashion”, the Pregnancy rate [1, 4] is listed as 1.16% and the Pregnancy rate [1, 5] is listed as 1.47%. For the same compound, the Pregnancy rate [1, 6] was 3.64%, the Pregnancy rate [1, 7] was 5.56% and the Pregnancy rate [1, 8] was 1.06%. For the same compound, the Pregnancy rate [1, 9] was 0%, the “Pregnancy rate” value [1, 10] was 4.40% and the “Pregnancy rate” value [1, 11] was 1.17%. The “Pregnancy rate” value [1, 12] was 1.08%, the “efficacy by BMI group” value ([1]; obese grade II (BMI 35 and above) subjects) was “decreased” and the “Odds Ratio [95% CI]” value ([1]; Obese II and more, CI [0.23, 4.44], NS) was 1.02. The “Odds Ratio [95% CI]” value ([1]; Overweight & Obese I, CI [0.11, 0.74], p = 0.0073) was 0.31, the “Odds Ratio [95% CI]” value ([1]; Underweight & Normal, CI [0.37, 1.73], NS) was 0.81 and the “efficacy by BMI group” value ([1]; underweight and normal (BMI below 25) and overweight and obese grade I (BMI 25-34.99) subjects) was “remained constant”. The “risk of pregnancy divided by (ulipristal acetate versus levonorgestrel)” value ([1]; women overweight or with grade I obesity (BMI 25-34.99), p=0.0073) was 3, the efficacy versus levonorgestrel ([1]; women with a BMI>25) was “significantly more effective than levonorgestrel” and the “efficacy for preventing pregnancy versus levonorgestrel” value [3] was “as efficacious as levonorgestrel”.
